Measured values reported in PubChem BioAssay AID732 (Emory University Molecular Libraries Screening Center, 2007).
Active and inactive are the calls of the source. The rule behind the calls is not given here.

Tested on: in vivo angiogenesis, blood vessel count
Test: angiogenesis inhibition in living animals, in vivo study, HTS (AID 732);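 note: zebrafish embryos dosed at one day post fertilization; 0% = reference inhibitor and 100% = plate mean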
Conditions: hits give low values;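 tested at 30 µM in the well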

| SMILES | vessel count % control |
| --- | --- |
| O=C1C(c2c(O)[nH]c3c(Cl)ccc(Cl)c23)=Nc2ccc(Br)cc21 | 121% (inactive) |
| O=C(Nc1ccc([N+](=O)[O-])cc1Cl)c1cc(Cl)ccc1O | 0% (inactive) |
| C[C@@H](CN1CCC(Cc2ccccc2)CC1)[C@@H](O)c1ccc(O)cc1 | 112% (inactive) |
| C[C@]12CCC(=O)C=C1CC[C@@H]1[C@@H]2C(=O)C[C@@]2(C)[C@H]1CC[C@]2(O)C(=O)CO | 126% (inactive) |
| C#CCn1c(=O)c2c(ncn2C)n(C)c1=O | 103% (inactive) |
| CCN1CCC[C@H]1CNC(=O)c1c(O)c(Cl)cc(Cl)c1OC | 103% (inactive) |
| Nc1nc2[nH]c(=O)cnc2c(=O)[nH]1 | 140% (inactive) |
| C=C(C)[C@H]1Cc2c(ccc3c2O[C@@H]2COc4cc(OC)c(OC)cc4[C@@H]2C3=O)O1 | 0% (inactive) |
| CCCN(CCC)[C@@H]1CCc2ccc(O)cc2C1 | 93.2% (inactive) |
| N#Cc1cc2nc(O)c(O)nc2cc1[N+](=O)[O-] | 94.9% (inactive) |
| CC(C)(C)NCC(O)COc1nsnc1N1CCOCC1 (centres undefined) | 101% (inactive) |
| C[C@H]1CC2C3CCC4=CC(=O)C=C[C@]4(C)[C@@]3(Cl)[C@@H](O)C[C@]2(C)[C@@]1(O)C(=O)CO (some centres undefined) | 120% (inactive) |
| NC(CCCP(=O)(O)O)C(=O)O (centres undefined) | 75.8% (inactive) |
| CCCN1C[C@H](CSC)C[C@@H]2c3cccc4[nH]cc(c34)C[C@H]21 | 96.8% (inactive) |
| Nc1ncnc2c1ncn2[C@@H]1O[C@H](C(=O)NC2CC2)[C@H](O)C1O (some centres undefined) | 102% (inactive) |
| Cc1cn[nH]c1 | 87.3% (inactive) |
| N#C/C(=C\c1ccc(O)c(O)c1)C(=O)NCc1ccccc1 | 95.6% (inactive) |
| NCCCNCCCCNCCCN | 115% (inactive) |
| CC1(C)C(=O)N(CCN2CCC(C(=O)c3ccc(F)cc3)CC2)c2ccccc21 | 118% (inactive) |
| CC(=O)Nc1nnc(S(N)(=O)=O)s1 | 78.2% (inactive) |
| O=S1(=O)N(CCN2CC=C(c3c[nH]c4cc(F)ccc34)CC2)c2cccc3c2N1CCC3 | 148% (inactive) |
| NCCCCCCNS(=O)(=O)c1cccc2c(Cl)cccc12 | 117% (inactive) |
| COc1cc(C=C(C#N)C#N)cc(O)c1O | 114% (inactive) |
| C[C@]12C=CC(=O)C=C1CC[C@@H]1C2=CC[C@]2(C)[C@@H](C(=O)CN3CCN(c4cc(N5CCCC5)nc(N5CCCC5)n4)CC3)CC[C@@H]12 | 101% (inactive) |

| SMILES | vessel count % control |
| --- | --- |
| CCOC(=O)C1=C(C)NC(C)=C(C(=O)OC)C1c1cccc([N+](=O)[O-])c1 (centres undefined) | 89.9% (inactive) |
| COc1ccc2c(c1)c(CC(=O)O)c(C)n2C(=O)c1ccc(Cl)cc1 | 112% (inactive) |
| CCCCCCC/C=C\CCCCCCCCC(=O)O | 106% (inactive) |
| NNCCc1ccccc1 | 104% (inactive) |
| CC(C[N+](C)(C)C)OC(N)=O (centres undefined) | 91.7% (inactive) |
| CNCC(O)c1ccc(O)c(O)c1 (centres undefined) | 123% (inactive) |
| C=CCN1CCc2cc(O)c(O)cc2C(c2ccccc2)C1 (centres undefined) | 114% (inactive) |
| CCCCCCCCCCCCCCC[C@H](O)[C@H](N)CO | 101% (inactive) |
| CCC1(C)CC(=O)NC1=O (centres undefined) | 95.8% (inactive) |
| N=c1ccn2c(n1)OC1[C@@H](O)[C@@H](CO)O[C@H]12 (some centres undefined) | 78.4% (inactive) |
| CN(C)CC[C@@H](c1ccc(Cl)cc1)c1ccccn1 | 107% (inactive) |
| OCCN1CCN(CCCN2c3ccccc3Sc3ccc(Cl)cc32)CC1 | 99.2% (inactive) |
| O=C1Nc2ccc(I)cc2/C1=C/c1cc(Br)c(O)c(Br)c1 | 69.8% (inactive) |
| CSC(N)=NCCC[C@H](N)C(=O)O | 107% (inactive) |
| CNCCC(Oc1ccccc1C)c1ccccc1 (centres undefined) | 122% (inactive) |
| Clc1ccc(C(c2ccc(Cl)cc2)n2cc[n+](CC(OCc3ccc(Cl)cc3Cl)c3ccc(Cl)cc3Cl)c2)cc1 (centres undefined) | 0% (inactive) |
| CCN(CC)c1ncnc2c1ncn2[C@@H]1O[C@H](COP(=O)(O)OP(=O)(O)C(Br)(Br)P(=O)(O)O)[C@@H](O)[C@H]1O | 81.9% (inactive) |
| Cn1cc(C(=O)OCC2CCN(CCNS(C)(=O)=O)CC2)c2ccccc21 | 106% (inactive) |
| Fc1ccc(C(OCCCc2cnc[nH]2)c2ccc(F)cc2)cc1 | 89.2% (inactive) |
| CCC(C)N(C)C(=O)c1cc2ccccc2c(-c2ccccc2Cl)n1 (centres undefined) | 102% (inactive) |
| Cc1cccc(C2CN(C)CCc3c2cc(O)c(O)c3Cl)c1 (centres undefined) | 96.5% (inactive) |
| Cc1nc2sccn2c(=O)c1CCN1CCC(=C(c2ccc(F)cc2)c2ccc(F)cc2)CC1 | 68.8% (inactive) |
| CC1(C)CCC2=C(O1)c1ccccc1C(=O)C2=O | 65.8% (inactive) |
| NC(C(=O)O)c1cc(=O)[nH]o1 (centres undefined) | 134% (inactive) |

| SMILES | vessel count % control |
| --- | --- |
| OC[C@H]1O[C@@H](n2cnc3c(NC4CCCC4)ncnc32)C(O)[C@H]1O (some centres undefined) | 94.3% (inactive) |
| CC(CN(C)C)CN1c2ccccc2CCc2ccccc21 (centres undefined) | 97.1% (inactive) |
| C1CCc2nnnn2CC1 | 79% (inactive) |
| Nc1c2c(nc3ccccc13)CCCC2 | 91.9% (inactive) |
| CN(C)c1cc2c(Nc3ccc4c(cnn4Cc4ccccc4)c3)ncnc2cn1 | 84.7% (inactive) |
| OC[C@H]1O[C@@H](n2cnc3c(NC4CCCCC4)ncnc32)[C@H](O)[C@@H]1O | 104% (inactive) |
| O=C1N=C(O)CN1/N=C/c1ccc(-c2ccc([N+](=O)[O-])cc2)o1 | 90.4% (inactive) |
| COc1ccc2c(c1)CCC1C2CC[C@@]2(C)C1CC[C@@H]2NCCCCCCN1C(=O)C=CC1=O (some centres undefined) | 0% (inactive) |
| CC[C@@H](C)[C@H]1O[C@]2(CC[C@@H]1C)C[C@@H]1C[C@@H](C/C=C(\C)[C@@H](O[C@H]3C[C@H](OC)[C@@H](O[C@H]4C[C@H](OC)[C@@H](O)[C@H](C)O4)[C@H](C)O3)[C@@H](C)/C=C/C=C3\CO[C@@H]4[C@H](O)C(C)=C[C@@H](C(=O)O1)[C@]34O)O2 | 78.7% (inactive) |
| COC(=O)c1c(C)[nH]c(C)c1C(=O)c1ccccc1Cc1ccccc1 | 102% (inactive) |
| O=C(O)CCC/C=C\C[C@@H]1[C@@H](/C=C/[C@H](O)C2Cc3ccccc3C2)[C@@H](F)C[C@@H]1O | 121% (inactive) |
| CC(N=C(NC#N)Nc1ccncc1)C(C)(C)C (centres undefined) | 98.9% (inactive) |
| O=C(O)c1ccccc1Nc1cccc(OCc2ccc3ccccc3n2)c1 | 85.3% (inactive) |
| NC(=O)COc1c(F)cc(SCCNS(=O)(=O)c2ccccc2)cc1F | 116% (inactive) |
| NCCc1cnc[nH]1 | 93.3% (inactive) |
| Oc1[nH]c2c(Cl)cc(Cl)cc2c1C1=Nc2ccc(Br)cc2/C1=N\OCCBr | 121% (inactive) |
| NCCCC(N)(C(=O)O)C(F)F (centres undefined) | 80.5% (inactive) |
| Cc1c(C)c2c(c(C)c1O)CCC(C)(CN1CCN(c3cc(N4CCCC4)nc(N4CCCC4)n3)CC1)O2 (centres undefined) | 99.2% (inactive) |
| CCCCS(=N)(=O)CC[C@H](N)C(=O)O (some centres undefined) | 93% (inactive) |
| Cc1ccc(N(CC2=NCCN2)c2cccc(O)c2)cc1 | 77.7% (inactive) |
| Cc1cccc(C)c1OCC(C)N (centres undefined) | 99.4% (inactive) |
| CC(CCc1ccccc1)NC(C)C(O)c1ccc(O)cc1 (centres undefined) | 98.4% (inactive) |
| CC(C)(C)c1cc(/C=C(\C#N)C(N)=S)cc(C(C)(C)C)c1O | 0% (inactive) |
| O=C1CCc2cc(OCCCCc3nnnn3C3CCCCC3)ccc2N1 | 124% (inactive) |

| SMILES | vessel count % control |
| --- | --- |
| CC1CN(S(=O)(=O)c2cccc3cnccc23)CCN1 (centres undefined) | 97.8% (inactive) |
| CC(=O)[C@H]1CC[C@H]2[C@@H]3CCC4=CC(=O)CC[C@]4(C)[C@H]3CC[C@]12C | 102% (inactive) |
| COc1cc([C@@H]2c3cc4c(cc3[C@H](O)C3COC(=O)[C@@H]32)OCO4)cc(OC)c1OC (some centres undefined) | 88.6% (inactive) |
| CC(=O)NNC(=O)N1Cc2ccccc2Oc2ccc(Cl)cc21 | 0% (inactive) |
| Clc1ccc2c(c1)C(N1CCNCC1)=Nc1ccccc1O2 | 98.2% (inactive) |
| C=C[C@H]1CN2CCC1C[C@H]2[C@H](O)c1ccnc2ccc(OC)cc12 (some centres undefined) | 98% (inactive) |
| C[N+](C)(CCCCCC[N+](C)(C)CCCN1C(=O)c2cccc3cccc(c23)C1=O)CCCN1C(=O)c2cccc3cccc(c23)C1=O | 115% (inactive) |
| Cc1ccccc1C(OCCN(C)C)c1ccccc1 (centres undefined) | 108% (inactive) |
| COc1cc(CNC(=O)CCCCCCC(C)C)ccc1O | 128% (inactive) |
| COC(=O)c1c(-c2cc(OC)c(OC)c(OC)c2)c2ccnc(OCc3ncccn3)c2c(=O)n1Cc1ccnc(C)c1 | 99.4% (inactive) |
| N#C/C(=C\c1ccc(O)c(O)c1)C(=O)NCCCNC(=O)/C(C#N)=C/c1ccc(O)c(O)c1 | 118% (inactive) |
| S=C(S)OC1CC2CC1C1CCCC21 (centres undefined) | 86.8% (inactive) |
| COc1ccccc1N1CCN(CCCNc2cc(=O)n(C)c(=O)n2C)CC1 | 111% (inactive) |
| CSc1ccc2c(c1)C(N1CCN(C)CC1)Cc1ccccc1S2 (centres undefined) | 60.6% (inactive) |
| Cn1cnc2c(NCc3ccccc3)nc(NCCO)nc21 | 98.8% (inactive) |
| C[C@]12CCC(=O)C=C1CC[C@@H]1[C@@H]2[C@@H](O)C[C@@]2(C)[C@H]1CC[C@]2(O)C(=O)COC(=O)CCC(=O)O | 98.7% (inactive) |
| CCCCS(=N)(=O)CCC(N)C(=O)O (centres undefined) | 137% (inactive) |
| C[N+](C)(C)CC#CCN1CCCC1=O | 99.6% (inactive) |
| CC(C)N(CCC(=O)c1ccc2ccccc2c1)Cc1ccccc1 | 0% (inactive) |
| C=C[C@H]1CN2CCC1C[C@@H]2[C@@H](O)c1ccnc2ccc(OC)cc12 (some centres undefined) | 149% (inactive) |
| c1ccc2nc(C3=NCCN3)ccc2c1 | 97.4% (inactive) |
| CN=C(N)NCCC[C@H](N)C(=O)O | 93% (inactive) |
